From patent US20120088791A1, “AMIDOBIPIPERIDINECARBOXYLATE M1 ALLOSTERIC AGONISTS, ANALOGS AND DERIVATIVES THEREOF, AND METHODS OF MAKING AND USING SAME” (VANDERBILT UNIVERSITY, priority 2009, published 2012)

Key:
hM5 = target: T1, hM5 (Homo sapiens, UniProt P08912); assay: Calcium mobilization assay, CHO cells stably expressing hM5; format: cell-based; conditions: selectivity for M1; read-out: potency (EC50) versus M5
T1 construct: expressed in transfected cells; host or cells: CHO cells
T1 sequence (P08912 1-532): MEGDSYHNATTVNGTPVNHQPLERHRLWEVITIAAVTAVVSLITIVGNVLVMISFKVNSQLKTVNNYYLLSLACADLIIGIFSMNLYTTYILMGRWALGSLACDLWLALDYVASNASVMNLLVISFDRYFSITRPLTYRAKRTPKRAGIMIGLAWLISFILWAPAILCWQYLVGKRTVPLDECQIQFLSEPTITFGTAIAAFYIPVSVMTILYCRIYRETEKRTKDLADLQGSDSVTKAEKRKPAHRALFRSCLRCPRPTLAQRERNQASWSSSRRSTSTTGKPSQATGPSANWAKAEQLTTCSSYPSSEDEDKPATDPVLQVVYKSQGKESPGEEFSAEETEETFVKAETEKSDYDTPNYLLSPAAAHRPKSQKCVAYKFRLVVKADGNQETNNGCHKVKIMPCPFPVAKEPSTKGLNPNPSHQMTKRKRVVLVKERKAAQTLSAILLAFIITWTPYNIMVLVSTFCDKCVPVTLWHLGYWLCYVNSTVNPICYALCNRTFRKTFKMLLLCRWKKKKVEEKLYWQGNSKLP
Source text: (§1) Cell culture and transfections. Chinese hamster ovary (CHO-K1) cells stably expressing rat (r)M1 were purchased from the American Type Culture Collection and cultured according to their indicated protocol. CHO cells stably expressing human (h)M2, hM3, and hM5 were used and described previously (Levey et al., 1991); rM4 cDNA, provided by T. I. Bonner (National Institutes of Health, Bethesda, Md.), was used to stably transfect CHO-K1 cells purchased from the American Type Culture Collection using Lipofectamine2000. To make stable hM2 and rM4 cell lines for use in calcium mobilization assays, these cells also were stably transfected with a chimeric G-protein (Gqi5) using Lipofectamine 2000. M1, hM3, and hM5 cells were grown in Ham's F-12 medium containing 10% heat-inactivated fetal bovine serum (FBS), 20 mM HEPES, and 50 μg/ml G418 sulfate. hM2-Gqi5 cells were grown in the same medium also containing 500 μg/ml Hygromycin B. Stable rM4-Gqi5 cells were grown in DMEM containing 10% heat-inactivated FBS, 20 mM HEPES, 400 μg/ml G418 sulfate, and 500 μg/ml Hygromycin B. The rat M1 Y381A orthosteric mutant receptor cDNA was generated using the Quik-Change site-directed mutagenesis kit (Stratagene) and verified by sequencing. […]
(§2) Calcium mobilization assays. […] Calcium flux was measured over time as an increase in fluorescence (fold over basal) using the Flexstation plate reader (Molecular Devices).

hM2 = target: T2, hM2 (Homo sapiens, UniProt P08172); assay: Calcium mobilization assay, CHO cells stably expressing hM2-Gqi5; format: cell-based; conditions: selectivity for M1; read-out: potency (EC50) versus M2
T2 construct: expressed in transfected cells; host or cells: CHO cells, also stably transfected with chimeric G-protein Gqi5
T2 sequence (P08172 1-466): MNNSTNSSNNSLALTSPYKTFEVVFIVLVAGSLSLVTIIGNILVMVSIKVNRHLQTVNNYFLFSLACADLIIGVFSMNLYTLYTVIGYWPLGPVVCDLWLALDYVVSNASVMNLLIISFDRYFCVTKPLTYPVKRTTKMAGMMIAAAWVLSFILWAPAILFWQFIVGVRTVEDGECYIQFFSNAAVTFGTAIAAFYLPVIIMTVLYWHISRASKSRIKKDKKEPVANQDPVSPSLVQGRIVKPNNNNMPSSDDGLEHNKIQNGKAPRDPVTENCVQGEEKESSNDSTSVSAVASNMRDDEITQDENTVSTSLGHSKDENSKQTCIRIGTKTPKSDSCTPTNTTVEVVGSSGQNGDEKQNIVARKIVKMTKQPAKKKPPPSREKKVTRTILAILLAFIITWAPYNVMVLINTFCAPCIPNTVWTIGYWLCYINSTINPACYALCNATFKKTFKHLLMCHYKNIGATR
Source text: as §1, §2

rM1 = target: T3, rM1 (Rattus norvegicus, UniProt P08482); assay: Calcium mobilization assay, CHO-K1 cells stably expressing rM1; format: cell-based; conditions: Table 1, R-enantiomers; for Emax: RM1, read-out: Efficacy (% Max ACh); for EC50: agonist-evoked calcium flux, read-out: Potency (EC50)
T3 construct: host or cells: CHO-K1
T3 sequence (P08482 1-460): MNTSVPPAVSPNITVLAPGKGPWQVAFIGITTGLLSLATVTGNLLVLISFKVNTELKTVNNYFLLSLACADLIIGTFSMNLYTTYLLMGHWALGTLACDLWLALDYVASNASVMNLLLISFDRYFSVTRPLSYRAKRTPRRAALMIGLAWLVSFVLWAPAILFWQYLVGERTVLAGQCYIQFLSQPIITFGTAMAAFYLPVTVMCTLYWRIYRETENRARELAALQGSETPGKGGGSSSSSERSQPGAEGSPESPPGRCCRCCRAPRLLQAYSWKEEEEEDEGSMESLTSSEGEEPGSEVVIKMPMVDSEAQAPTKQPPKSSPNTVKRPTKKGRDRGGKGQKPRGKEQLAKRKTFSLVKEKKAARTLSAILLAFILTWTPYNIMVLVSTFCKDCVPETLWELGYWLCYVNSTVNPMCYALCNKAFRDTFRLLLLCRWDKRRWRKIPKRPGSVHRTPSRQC
Source text: Cell culture and transfections. Chinese hamster ovary (CHO-K1) cells stably expressing rat (r)M1 were purchased from the American Type Culture Collection and cultured according to their indicated protocol. CHO cells stably expressing human (h)M2, hM3, and hM5 were used and described previously (Levey et al., 1991); rM4 cDNA, provided by T. I. Bonner (National Institutes of Health, Bethesda, Md.), was used to stably transfect CHO-K1 cells purchased from the American Type Culture Collection using Lipofectamine2000. To make stable hM2 and rM4 cell lines for use in calcium mobilization assays, these cells also were stably transfected with a chimeric G-protein (Gqi5) using Lipofectamine 2000. M1, hM3, and hM5 cells were grown in Ham's F-12 medium containing 10% heat-inactivated fetal bovine serum (FBS), 20 mM HEPES, and 50 μg/ml G418 sulfate. hM2-Gqi5 cells were grown in the same medium also containing 500 μg/ml Hygromycin B. Stable rM4-Gqi5 cells were grown in DMEM containing 10% heat-inactivated FBS, 20 mM HEPES, 400 μg/ml G418 sulfate, and 500 μg/ml Hygromycin B. The rat M1 Y381A orthosteric mutant receptor cDNA was generated using the Quik-Change site-directed mutagenesis kit (Stratagene) and verified by sequencing. CHO-K1 cells were stably transfected with this cDNA using Lipofectamine2000 and screened for expression based on calcium mobilization in response to the allosteric M1 agonist N-desmethylclozapine.
Calcium mobilization assays. For measurement of agonist-evoked increases in intracellular calcium, CHO-K1 cells stably expressing muscarinic receptors were plated in 100 μl of growth medium at 5×10^4 (rM1, hM3, and hM5) or 6×10^4 cells per well (rM1 Y381A, hM2, and rM4) in Costar 96-well black-walled, tissue culture (TC)-treated, clear-bottom plates (Fisher). Cells were incubated overnight at 37° C. and 5% CO2. The next day, medium was removed from the cells, and they were incubated with 50 μl of 2 μM Fluo-4 AM diluted in assay buffer [HBSS (Invitrogen) supplemented with 20 mM HEPES and 2.5 mM probenecid, pH 7.4] for 1 h at 37° C. Dye was removed and replaced with 45 μl of assay buffer. Agonists were diluted into assay buffer at a 2× concentration and applied to cells using the automated system at 19 s into the 130 s protocol. Calcium flux was measured over time as an increase in fluorescence (fold over basal) using the Flexstation plate reader (Molecular Devices).

rM4 = target: T4, rM4 (Rattus norvegicus, UniProt P08485); assay: Calcium mobilization assay, CHO-K1 cells stably expressing rM4-Gqi5; format: cell-based; conditions: selectivity for M1; read-out: potency (EC50) versus M4
T4 construct: expressed in transfected cells; host or cells: CHO-K1 cells, also stably transfected with chimeric G-protein Gqi5
T4 sequence (P08485 1-478): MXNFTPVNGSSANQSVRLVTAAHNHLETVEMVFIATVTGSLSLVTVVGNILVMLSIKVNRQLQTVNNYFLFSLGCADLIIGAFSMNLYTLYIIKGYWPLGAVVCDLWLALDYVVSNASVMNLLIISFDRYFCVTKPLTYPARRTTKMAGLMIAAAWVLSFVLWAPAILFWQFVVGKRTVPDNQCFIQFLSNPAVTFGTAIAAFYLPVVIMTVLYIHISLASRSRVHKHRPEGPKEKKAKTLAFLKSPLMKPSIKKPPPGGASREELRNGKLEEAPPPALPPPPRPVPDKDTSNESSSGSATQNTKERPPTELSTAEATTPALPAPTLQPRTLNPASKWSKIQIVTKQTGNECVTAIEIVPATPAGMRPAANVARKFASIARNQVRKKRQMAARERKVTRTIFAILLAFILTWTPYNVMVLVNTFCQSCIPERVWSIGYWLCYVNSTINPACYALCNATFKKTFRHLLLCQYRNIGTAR
Source text: as §1, §2

hM3 = target: T5, hM3 (Homo sapiens, UniProt P20309); assay: Calcium mobilization assay, CHO cells stably expressing hM3; format: cell-based; conditions: selectivity for M1; read-out: potency (EC50) versus M3
T5 construct: expressed in transfected cells; host or cells: CHO cells
Source text: as §1, §2

[1] = test system: Aβ 1-40 and 1-42 production; conditions: in vitro; cited from earlier work
[2] = multiple preclinical models; cited from earlier work
[3] = preclinical and clinical studies; cited from earlier work

T5 sequence (P20309 whole entry): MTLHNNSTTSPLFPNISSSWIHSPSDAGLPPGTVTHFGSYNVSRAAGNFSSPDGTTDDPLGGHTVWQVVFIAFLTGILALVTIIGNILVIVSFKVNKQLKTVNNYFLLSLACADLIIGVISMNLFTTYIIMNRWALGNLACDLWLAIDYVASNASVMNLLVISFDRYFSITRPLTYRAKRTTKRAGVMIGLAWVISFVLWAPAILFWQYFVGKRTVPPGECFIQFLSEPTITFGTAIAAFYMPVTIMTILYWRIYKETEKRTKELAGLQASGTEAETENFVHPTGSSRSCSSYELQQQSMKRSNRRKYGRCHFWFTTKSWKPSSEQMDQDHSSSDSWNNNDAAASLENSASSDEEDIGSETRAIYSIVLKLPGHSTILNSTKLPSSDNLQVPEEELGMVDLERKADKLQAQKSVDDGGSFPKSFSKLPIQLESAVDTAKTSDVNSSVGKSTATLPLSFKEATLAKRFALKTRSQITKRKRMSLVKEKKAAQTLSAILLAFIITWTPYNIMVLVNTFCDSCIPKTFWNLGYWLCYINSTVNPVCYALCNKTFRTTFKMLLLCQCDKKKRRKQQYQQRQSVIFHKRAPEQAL

| EC50 (hM5) | EC50 (hM2) | Emax (rM1) | EC50 (rM1) | EC50 (rM4) | EC50 (hM3) | SMILES | effect on Aβ 1-40 and 1-42 production [1] | efficacy in preclinical models of schizophrenia [2] | efficacy with regard to positive, negative and cognitive symptoms [3] |
| --- | --- | --- | --- | --- | --- | --- | --- | --- | --- |
| > 50 µM | > 50 µM | 96% | 0.088 µM | > 50 µM | > 50 µM | CCOC(=O)N1CCC(N2CCC[C@@H](NC(=O)c3ccccc3C)C2)CC1 [(R)-ethyl 3-(2-methylbenzamido)-1,4′-bipiperidine-1′-carboxylate] | – | – | – |
| > 50 µM | > 50 µM | 91% | 0.127 µM | > 50 µM | > 50 µM | CCOC(=O)N1CCC(N2CCC[C@@H](NC(=O)c3ccccc3)C2)CC1 [(R)-ethyl 3-benzamido-1,4′-bipiperidine-1′-carboxylate] | – | – | – |
| – | – | – | – | – | – | Cc1ccccc1CN1CCC(N2CCC(n3c(=O)[nH]c4ccccc43)CC2)CC1 [TBPB] | decrease Aβ 1-40 and 1-42 production in vitro | demonstrated efficacy | – |
| – | – | – | – | – | – | CCCCCCOc1nsnc1C1=CCCN(C)C1 [Xanomeline] | – | – | proved efficacious |
